Measurements as given in patent US6489485B2, “Para-amine substituted phenylamide glucokinase activators” (Hoffmann-La Roche Inc., priority 2000, dated 2002).

Structure (SMILES)	melting point [°C]
O=C(Nc1ccc(C(CC2CCCC2)C(=O)Nc2nccs2)cc1)c1ccccc1 (stereo not drawn) [Example 1]	285 to 290
O=C(Nc1ccc(C(CC2CCCC2)C(=O)Nc2nccs2)cc1)c1ccncc1 (stereo not drawn) [Example 4, N-{4-[2-Cyclopentyl-1-(thiazol-2-ylcarbamoyl)-ethyl]-phenyl}-isonicotinamide]	225 to 230
O=C(Nc1ccc(C(CC2CCCC2)C(=O)Nc2nccs2)cc1)c1ccc([N+](=O)[O-])cc1 (stereo not drawn) [Example 5, N-{4-[2-Cyclopentyl-1-(thiazol-2-ylcarbamoyl)-ethyl]-phenyl}-4-nitro-benzamide]	236 to 238
COC(=O)C(=O)Nc1ccc(C(CC2CCCC2)C(=O)Nc2nccs2)cc1 (stereo not drawn) [Example 6, N-{4-[2-Cyclopentyl-1-(thiazol-2-ylcarbamoyl)-ethyl]-phenyl}-oxalamic acid methyl ester]	95 to 98
O=C(Nc1ccc(C(CC2CCCC2)C(=O)Nc2nccs2)cc1)c1cccnc1 (stereo not drawn) [Example 9, N-{4-[2-Cyclopentyl-1-(thiazol-2-ylcarbamoyl)-ethyl]-phenyl}-nicotinamide]	240 to 242
CCOC(=O)c1csc(NC(=O)C(CC2CCCC2)c2ccc(NC(=O)c3cccnc3)cc2)n1 (stereo not drawn) [Example 10, 2-(3-Cyclopentyl-2-{4-[(pyridine-3-carbonyl)-amino]-phenyl}propionylamino)-thiazole-4-carboxylic acid ethyl ester]	222 to 223
O=C(Nc1ccc(C(CC2CCCC2)C(=O)Nc2ccccn2)cc1)c1cccnc1 (stereo not drawn) [Example 15, N-{4-[2-Cyclopentyl-1-(pyridin-2-ylcarbamoyl)-ethyl]-phenyl}-nicotinamide]	160 to 163

Second part, the compound after the results:

melting point [°C]	Structure (SMILES)
220 to 221	O=C(Cc1cccs1)Nc1ccc(C(CC2CCCC2)C(=O)Nc2nccs2)cc1 (stereo not drawn) [Example 2, 3-Cyclopentyl-N-thiazol-2-yl-2-[4-(2-thiophen-2-yl-acetylamino)-phenyl]-propionamide]
120 to 125	O=C(Nc1nccs1)C(CC1CCCC1)c1ccc(NS(=O)(=O)c2ccc([N+](=O)[O-])cc2)cc1 (stereo not drawn) [Example 3, 3-Cyclopentyl-2-[4-(4-nitro-benzenesulfonylamino)-phenyl]-N-thiazol-2-yl-propionamide]
90 to 95	CC(=O)OCC(=O)Nc1ccc(C(CC2CCCC2)C(=O)Nc2nccs2)cc1 (stereo not drawn) [Example 7, Acetic acid {4-[2-cyclopentyl-1-(thiazol-2-ylcarbamoyl)-ethyl]-phenylcarbamoyl}-methyl ester]
110 to 112	CN(C)S(=O)(=O)Nc1ccc(C(CC2CCCC2)C(=O)Nc2nccs2)cc1 (stereo not drawn) [Example 8, N-{4-[2-Cyclopentyl-1-(thiazol-2-ylcarbamoyl)-ethyl]-phenyl}-dimethylsulfamide]
195 to 200	CCOC(=O)Cc1csc(NC(=O)C(CC2CCCC2)c2ccc(NC(=O)c3cccnc3)cc2)n1 (stereo not drawn) [Example 11, [2-(3-Cyclopentyl-2-{4-[(pyridine-3-carbonyl)-amino]-phenyl}-propionylamino)-thiazol-4-yl]-acetic acid ethyl ester]
85 to 90	CS(=O)(=O)Nc1ccc(C(CC2CCCC2)C(=O)Nc2nccs2)cc1 (stereo not drawn) [Example 12, 3-Cyclopentyl-2-(4-methanesulfonylamino-phenyl)-N-thiazol-2-yl-propionamide]
70 to 74	O=C(Nc1nccs1)C(CC1CCCC1)c1ccc(NS(=O)(=O)C(F)(F)F)cc1 (stereo not drawn) [Example 13, 3-Cyclopentyl-N-thiazol-2-yl-2-(4-trifluoromethanesulfonylamino-phenyl)-propionamide]
110 to 111	COC(=O)c1ccc(NC(=O)C(CC2CCCC2)c2ccc(NC(=O)c3cccnc3)cc2)nc1 (stereo not drawn) [Example 16, 6-(3-Cyclopentyl-2-{4-[(pyridine-3-carbonyl)-amino]-phenyl}-propionylamino)-nicotinic acid methyl ester]
